We go through 27 compounds from paper PMC6792352, “Limited Chemical Structural Diversity Found to Modulate Thyroid Hormone Receptor in the Tox21 Chemical Library” (Environmental Health Perspectives, 2019).

The test system of the data set is GH3-TRE-Luc cell line. The settings on record: read-out: AC50 (uM) modified / 1000, viability, 1 nM T3 present, 24 h.

Structures are written as SMILES. Counter-ions that a name gives are not always drawn. Like-named read-outs stand apart in the source and are kept apart here.

In the case of `COC(=O)[C@H]1[C@H]2C[C@@H]3c4[nH]c5cc(OC)ccc5c4CCN3C[C@H]2C[C@@H](OC(=O)c2cc(OC)c(OC)c(OC)c2)[C@@H]1OC` [Reserpine], the CC50 was found to be 12.5 µM (Tox21_110001=Tox21_111107), 22.9 µM (Tox21_110001=Tox21_202395) and 75.5 µM (Tox21_110001=Tox21_300537). Consider `CC/N=c1\cc2oc3cc(NCC)c(C)cc3c(-c3ccccc3C(=O)OCC)c-2cc1C` [Rhodamine 6G], for which the CC50 (Tox21_110001=Tox21_201597) turned out to be 0.49 µM and the CC50 (Tox21_110001=Tox21_302898) was 1.44 µM.

On to `NC(=O)c1ncn([C@@H]2O[C@H](CO)[C@@H](O)[C@H]2O)n1` [Ribavirin], for which the CC50 (Tox21_110001=Tox21_110259) came out at 40.1 µM. Take `C=C(C)[C@H]1Cc2c(ccc3c2O[C@@H]2COc4cc(OC)c(OC)cc4[C@@H]2C3=O)O1` [Rotenone]: the CC50 came to 3.27 µM (Tox21_110001=Tox21_110819), 15.5 µM (Tox21_110001=Tox21_201904) and 5.41 µM (Tox21_110001=Tox21_300695). Take `CC[C@H]1OC(=O)[C@H](C)[C@@H](O[C@H]2C[C@@](C)(OC)[C@@H](O)[C@H](C)O2)[C@H](C)[C@@H](O[C@@H]2O[C@H](C)C[C@H](N(C)C)[C@H]2O)[C@](C)(O)C[C@@H](C)/C(=N\OCOCCOC)[C@H](C)[C@@H](O)[C@]1(C)O` [Roxithromycin]: the CC50 (Tox21_110001=Tox21_301835) was determined as 31 µM. Consider `CC(C)(C)NC(=O)[C@@H]1C[C@@H]2CCCC[C@@H]2CN1C[C@@H](O)[C@H](Cc1ccccc1)NC(=O)[C@H](CC(N)=O)NC(=O)c1ccc2ccccc2n1` [Saquinavir mesylate], for which the CC50 amounted to 9.01 µM (Tox21_110001=Tox21_111137) and 27.8 µM (Tox21_110001=Tox21_202533). For the compound `CCC(C)(C)C(=O)O[C@H]1C[C@@H](C)C=C2C=C[C@H](C)[C@H](CC[C@@H]3C[C@@H](O)CC(=O)O3)[C@H]21` [Simvastatin], the CC50 (Tox21_110001=Tox21_300400) was 72.4 µM. Take `CO[C@H]1C[C@@H]2CC[C@@H](C)[C@@](O)(O2)C(=O)C(=O)N2CCCC[C@H]2C(=O)O[C@H]([C@H](C)C[C@@H]2CC[C@@H](O)[C@H](OC)C2)CC(=O)[C@H](C)/C=C(\C)[C@@H](O)[C@@H](OC)C(=O)[C@H](C)C[C@H](C)/C=C/C=C/C=C/1C` [Sirolimus]: the CC50 amounted to 0.00123 µM (Tox21_110001=Tox21_110870) and 0.00263 µM (Tox21_110001=Tox21_112750).

Consider `O=[N+]([O-])c1ccc(O)cc1` [Sodium 4-nitrophenolate], for which the CC50 (Tox21_110001=Tox21_300477) came to 44.7 µM. Turning to `Oc1c(Cl)cc(Cl)cc1Sc1cc(Cl)cc(Cl)c1O` [Sodium bithionolate], the CC50 (Tox21_110001=Tox21_202791) amounted to 7.44 µM. `CCN(CC)C(=S)S` [Sodium diethyldithiocarbamate trihydrate]: the CC50 (Tox21_110001=Tox21_302812) was 8.88 µM. Consider `CCN(CC)C(=S)S` [Sodium diethyldithiocarbamate], for which, where the note is “Tox21_110001=Tox21_112412”, the CC50 amounted to 1.18 µM. Consider `CC/C(=C(\c1ccccc1)c1ccc(OCCN(C)C)cc1)c1ccccc1` [Tamoxifen citrate], for which the CC50 (Tox21_110001=Tox21_110938) came out at 5.89 µM, the CC50 (Tox21_110001=Tox21_202070) was determined as 10.9 µM and the CC50 (Tox21_110001=Tox21_300274) was found to be 4.69 µM.

As for `CC/C(=C(\c1ccccc1)c1ccc(OCCN(C)C)cc1)c1ccccc1` [Tamoxifen], the CC50 (Tox21_110001=Tox21_201243) is 13.9 µM and the CC50 (Tox21_110001=Tox21_300539) came to 8.55 µM. Take `O=C(OC[C@H]1O[C@@H](OC(=O)c2cc(O)c(O)c(OC(=O)c3cc(O)c(O)c(O)c3)c2)[C@H](OC(=O)c2cc(O)c(O)c(OC(=O)c3cc(O)c(O)c(O)c3)c2)[C@@H](OC(=O)c2cc(O)c(O)c(OC(=O)c3cc(O)c(O)c(O)c3)c2)[C@@H]1OC(=O)c1cc(O)c(O)c(OC(=O)c2cc(O)c(O)c(O)c2)c1)c1cc(O)c(O)c(OC(=O)c2cc(O)c(O)c(O)c2)c1` [Tannic acid]: the CC50 reads like this: (Tox21_110001=Tox21_111422) 3.05 µM; (Tox21_110001=Tox21_300079) 15.7 µM. Turning to `CC(C)(C)c1ccc(C(O)CCCN2CCC(C(O)(c3ccccc3)c3ccccc3)CC2)cc1` (stereo not drawn) [Terfenadine], the CC50 (Tox21_110001=Tox21_110296) came out at 5.45 µM.

`CCCCCCCCCCCCCC[N+](C)(C)C` [Tetradonium bromide]: the CC50 is, setting by setting: (Tox21_110001=Tox21_112327) 5.04 µM; (Tox21_110001=Tox21_302067) 8.21 µM. Regarding `CN(C)C(=S)SC(=S)N(C)C` [Tetramethylthiuram monosulfide], the CC50 runs as follows: (Tox21_110001=Tox21_111656) 2.19 µM; (Tox21_110001=Tox21_201554) 1.5 µM; (Tox21_110001=Tox21_302880) 0.329 µM. `CSc1ccc2c(c1)N(CCC1CCCCN1C)c1ccccc1S2` (stereo not drawn) [Thioridazine]: the CC50 (Tox21_110001=Tox21_110294) was 6.53 µM.

As for `CN(C)C(=S)SSC(=S)N(C)C` [Thiram], the CC50 runs as follows: (Tox21_110001=Tox21_111150) 0.159 µM; (Tox21_110001=Tox21_201569) 12.7 µM; (Tox21_110001=Tox21_301102) 0.0524 µM. For the compound `C=C1C(CCl)(CCl)C2(Cl)C(Cl)C(Cl)C1(Cl)C2(Cl)Cl` (stereo not drawn) [Toxaphene], the CC50 by setting is: (Tox21_110001=Tox21_111173) 5.43 µM; (Tox21_110001=Tox21_200912) 23.5 µM. On to `Oc1cc(Cl)ccc1Oc1ccc(Cl)cc1Cl` [Triclosan], for which the CC50 reads like this: (Tox21_110001=Tox21_111648) 50.4 µM; (Tox21_110001=Tox21_400079) 13.3 µM. For `CCCCCCCCCCCC(=O)O` [Triethanolamine Laurate], the CC50 (Tox21_110001=Tox21_302696) is 85.4 µM. For the compound `CCCCCCCCCCCCCC[P+](CCCCCC)(CCCCCC)CCCCCC` [Trihexyltetradecylphosphonium bromide], the CC50 (Tox21_110001=Tox21_200809) was found to be 5.4 µM. In the case of `CCCCCCCCCCCCCC[P+](CCCCCC)(CCCCCC)CCCCCC` [Trihexyltetradecylphosphonium dicyanamide], for the setting “Tox21_110001=Tox21_202613”, the CC50 came to 2.76 µM. In the case of `CCCCCCCCCCCCCC[P+](CCCCCC)(CCCCCC)CCCCCC` [Trihexyltetradecylphosphonium hexafluorophosphate], the CC50 (Tox21_110001=Tox21_200750) turned out to be 5.33 µM. As to `COc1ccc(CCN(C)CCCC(C#N)(c2ccc(OC)c(OC)c2)C(C)C)cc1OC` (stereo not drawn) [Verapamil], the CC50 (Tox21_110001=Tox21_110300) stood at 23.2 µM.
